One experiment deals with NCI-H1373 cells. The experiment can be described thus: Inhibition of tumor growth by oral dosing, human NCI-H1373 lung cancer xenograft. Format: in vivo, SCID mice. The source says:
(§1) Example H: Inhibition of Tumor Growth by Oral Dosing with a PARP7 Inhibitor
(§2) The effect of Compound 561 on tumor growth was studied in a human NCI-H1373 lung cancer xenograft and a murine CT26 colon cancer syngeneic model.
For the NCI-H1373 study, SCID mice were inoculated subcutaneously in the right flank with NCI-H1373 cells for tumor development. After 5 days of tumor growth, mice with 89-148 mm^3 tumors were randomized into treatment groups with mean tumor volumes of 121 mm^3. The treatments were started from the next day post randomization (defined randomization day as day 0) and were treated with vehicle (50% Labrasol) or Compound 561 (62.5, 125, 250, and 500 mg/kg) once a day for 28 days by oral gavage. Tumor volumes were determined by manual calipers every 2-3 days. Mean tumor volume and SEM are plotted. QD: once a day; PO: per oral administration. Statistical significance is calculated using two-way ANOVA followed by Bonferroni post-tests in which the treatment groups were compared to vehicle control (****P<0.0001).
A general note: Xenograft models place foreign cells or tissue in a host animal.

In experiment [1] the test system is human NCI-H1373 lung cancer xenograft. The experiment can be described thus: Tumor growth in human NCI-H1373 lung cancer xenograft (FIG. 7A). The class given is in vivo. As to conditions: once daily administration.
In experiment [2] the test system is CT26 cells. The experiment can be described thus: Inhibition of tumor growth by oral dosing, murine CT26 colon cancer syngeneic model. To be noted: BALB/c mice, 125-500 mg/kg BID or 500 mg/kg QD, 21 days. Format: in vivo.
Source text: as §1, §2
For the CT26 study, BALB/c mice were inoculated subcutaneously in the right flank with CT26 cells for tumor development. After 5 days of cell inoculation, mice with 36-79 mm^3 tumors were randomized into treatment groups with mean tumor volumes of 54 mm^3. The treatments were started from the next day post randomization (defined randomization day as day 0) and were treated with vehicle (25 or 50% Labrasol) or Compound 561 BID (2 times a day every 12 hours) at doses ranging from 125-500 mg/kg or QD (once a day) at 500 mg/kg for 21 days by oral gavage or needle subcutaneously. Tumor volumes were determined by manual calipers every 2-3 days. Mean tumor volume and SEM are plotted. BID: twice a day; PO: per oral administration; QD: once a day; SC: per subcutaneous administration. The first two doses for vehicle and Compound 561 500 mg/kg in the QD groups were delivered by subcutaneous injection. […] Statistical significance is calculated using two-way ANOVA followed by Bonferroni post-tests in which the treatment groups were compared to vehicle control (****P<0.0001).

Experiment [3] concerns murine CT26 colon cancer syngeneic model. The experiment can be described thus: Tumor growth in murine CT26 colon cancer syngeneic model (FIG. 6A-C, 7B). To be noted: once or twice daily administration, FIG. 7B. The class given is in vivo, mouse.
Experiment [4] concerns panel of cancer cell lines. Briefly: Inhibition of cancer cell growth, 144 hours (CellTiter-Glo), GI50, Table A-3. Format: cell-based. To be noted: MDA-MIB-468 cell line, breast adenocarcinoma. As for the experimental part: (§3) Example C: Inhibition of Cancer Cell Growth by Treatment with PARP7 Inhibitors
(§4) Table A-2 and Table A-3 (below) represents the concentration that causes 50% growth inhibition (GI50) in a panel of cancer cell lines with Compound 18B and Compound 561. Cells were plated into 384-well plates at a pre-specified density in fetal bovine serum-containing media. Cells were treated with compound or vehicle (DMSO) 24 hrs later, and a day zero plate was collected for analysis. Test compound plates were incubated continuously for 72 hrs (Table A-2) or 144 hours (Table A-3) cell growth was assessed using a luminescent cell viability assay (CellTiter-Glo, Promega). The GI50 was determined by correcting for the cell count at time zero (time of treatment) and plotting data as percent growth relative to vehicle-treated cells.

Experiment [5] concerns RAW264.7 mouse macrophages. Briefly: Induction of interferon-beta levels in RAW264.7 macrophages in the presence of STING agonist DMXAA (FIG. 3). The class given is cell-based.
Another experiment deals with TIPARP (PARP7) (Homo sapiens (Human), UniProt Q7Z3E1). The experiment can be described thus: Enzymatic assay for inhibition of PARP7: displacement of biotinylated Probe A (TR-FRET). The class given is binding. To be noted: TR-FRET displacement of Probe A from TIPARP. As for the experimental part:
20 nL of a dose response curve of each test compound was spotted in black 384-well polystyrene proxiplates (Perkin Elmer) using a Mosquito (TTP Labtech). […] Reactions were incubated at 25° C. for an additional 30 min, then read on an Envision plate reader equipped with a LANCE/DELFIA top mirror (Perkin Elmer) using excitation of 320 nm and emission of 615 nm and […] with a 90 μs delay. The ratio of the 665/615 nm emission were calculated for each well to determine the amount of complex of TIPARP and Probe A in each well. […] The Hill Coefficient is normally allowed to float but may also be fixed at 1 in a 3-parameter fit. Y is the % inhibition and X is the compound concentration.
For orientation: In TR-FRET formats the signal depends on donor and acceptor labels being close together.

Experiment [6] deals with panel of cancer cell lines. Briefly: Inhibition of cancer cell growth, 72 hrs (CellTiter-Glo), GI50, Table A-2. The class given is cell-based. The method, then:
as §3, §4
In general terms: Cellular ATP, detected with luciferase, serves as a proxy for viable cell number.

Experiment [7] concerns CT26 cells. Briefly: Proliferation of CT26 cells in the presence of PARP7 inhibitors (CellTiter-Glo). Format: cell-based, mouse. To be noted: 4 days incubation. The method, then:
Example F: Proliferation of CT26 Cells in the Presence of PARP7 Inhibitors
CT26 cells were plated in a 384-well plate and allowed to adhere for several hours before being treated with Compound 18B. Cells were incubated with compound for 4 days prior to processing with CellTiter-Glo reagent (Promega). Luminescence was measured with a Perkin Elmer Envision and percent inhibition was calculated using the vehicle (DMSO) average as 0% inhibition. Non-linear regression analysis was performed using a 4 parameter (variable slope) fit in GraphPad Prism.

Experiment [8] relates to NCI-H1373 lung cancer cells. Briefly: Inhibition of cancer cell growth in NCI-H1373 cells (FIG. 2). Format: cell-based, human.
For experiment [9], the system named is CT26 mouse colon cancer cells. Briefly: Induction of interferon-beta levels in CT26 cells in the presence of STING agonist DMXAA (FIG. 3). Format: cell-based.

pIC50: −log10 of the molar value.

This note sets out measurements from patent US10870641B2, “Pyridazinones as PARP7 inhibitors” (Ribon Therapeutics Inc., priority 2018, dated 2020).

Sequence of TIPARP (PARP7) (Q7Z3E1 whole entry): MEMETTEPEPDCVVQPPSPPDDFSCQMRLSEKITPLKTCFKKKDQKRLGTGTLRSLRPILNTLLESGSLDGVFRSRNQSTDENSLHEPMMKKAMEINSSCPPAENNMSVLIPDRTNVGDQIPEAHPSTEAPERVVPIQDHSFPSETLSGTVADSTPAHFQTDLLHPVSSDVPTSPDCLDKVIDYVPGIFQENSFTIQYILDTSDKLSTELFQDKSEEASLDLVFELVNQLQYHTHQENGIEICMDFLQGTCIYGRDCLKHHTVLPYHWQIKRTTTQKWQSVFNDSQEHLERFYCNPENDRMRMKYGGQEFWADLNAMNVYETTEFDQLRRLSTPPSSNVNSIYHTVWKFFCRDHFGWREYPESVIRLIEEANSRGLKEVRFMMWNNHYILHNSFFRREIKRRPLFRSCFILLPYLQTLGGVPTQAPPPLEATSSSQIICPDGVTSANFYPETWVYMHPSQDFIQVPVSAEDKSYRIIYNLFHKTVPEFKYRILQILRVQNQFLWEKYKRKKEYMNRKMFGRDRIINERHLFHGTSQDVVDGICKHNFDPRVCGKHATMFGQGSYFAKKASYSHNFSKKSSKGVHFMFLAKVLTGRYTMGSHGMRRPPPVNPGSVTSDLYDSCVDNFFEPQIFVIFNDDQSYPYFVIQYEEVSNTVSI

One may read the GI50 as the concentration at which growth is held to half of that of the control. Read a low GI50 as greater sensitivity of the cells. Turning to `C[C@@H](COCCC(=O)N1CCN(c2ncc(C(F)(F)F)cn2)CC1)Nc1cn[nH]c(=O)c1C(F)(F)F` [Example 561, 5-[[(2S)-1-(3-oxo-3-[4-[5-(trifluoromethyl)pyrimidin-2-yl]piperazin-1-yl]propoxy)propan-2-yl]amino]-4-(trifluoromethyl)-2,3-dihydropyridazin-3-one], the tumor regression result in the experiment with NCI-H1373 cells (62.5 to 500 mg/kg once a day for 28 days, all dose levels) was “complete tumor regression”. The tumor growth result was “significantly reduces tumor growth” with NCI-H1373 cells (SCID mice, once daily oral gavage, 28 days); “significantly reduces tumor growth” in experiment [1]; “significantly reduces tumor growth” in the experiment with CT26 cells [2]; “significantly reduces tumor growth” in experiment [3]. This compound displayed a GI50 in [4] of at least 1 µM.
As a reminder, the pIC50 is the IC50 on a negative log10 scale, so that one unit is a factor of ten. Read a low pIC50 as a large IC50. In the case of `N#Cc1ccc(N2CCN(C(=O)c3cccc(OC[C@@H]4c5ccccc5CN4c4cn[nH]c(=O)c4C(F)(F)F)c3)CC2)nc1` [Example 18B, 6-[4-[(3-[[(1S)-2-[6-Oxo-5-(trifluoromethyl)-1,6-dihydropyridazin-4-yl]-2,3-dihydro-1H-isoindol-1-yl]methoxy]phenyl)carbonyl]piperazin-1-yl]pyridine-3-carbonitrile], the “interferon-beta (IFN-β) levels” value in experiment [5] and in experiment [9] was “induction of interferon-beta (IFN-β) levels” in each case. In addition, the pIC50 at TIPARP (PARP7) was over 7.00. The GI50 fell in the range of 0.1 to 1 µM in experiment [6] (72 h, GSS cell line, stomach adenocarcinoma) and 0.1 to 1 µM in experiment [6] (LUDLU-1, 72 h, LUDLU-1 cell line, lung squamous cell carcinoma). Moreover, the “proliferation in CT26 cells in vitro” value with CT26 cells [7] is listed as “do not inhibit proliferation”. The “growth of NCI-H1373 lung cancer cells” value in experiment [8] is reported as “dose-dependent decrease in growth”.
